Consider 8 molecules from publication PMC9102953, “New Derivatives of 5-Substituted Uracils: Potential Agents with a Wide Spectrum of Biological Activity” (Molecules, 2022).

Like-named read-outs stand apart in the source and are kept apart here.

Series [1] has as its system yellow fever virus (YFV) strain 17 D. Kind of series: microbe, parasite or virus in culture. The note with it: for EC50: Yellow fever virus, Huh-7, read-out: EC50 (μM) YFV 17D, Huh7. The series is classed as cell-based.
Series [2] concerns HCoV-OC43. As to the kind of experiment: Antiviral cytopathicity assay, HCoV-OC43 in HEL 299 cells. It counts as cell-based.
The subject of series [3] is respiratory syncytial virus (RSV) strain A Long. Kind of series: microbe, parasite or virus in culture. The series is classed as cell-based. The conditions noted are these: for EC50: human respiratory syncytial virus, HEL 299, read-out: EC50 (μM) RSV A Long, HEL 299.
The nature of series [4]: in vitro. The conditions noted are these: dog.
Series [5] is described as follows: in vitro. The conditions noted are these: human.
Series [6] is described as follows: in vitro. The note with it: human. This is another data set of the same source.
Where [7] appears, read: Betacoronavirus 1, OC43, HEL 299, read-out: EC50 (μM) HCoV-OC43, HEL 299.

The EC50 is the midpoint of the concentration-response curve. `CCCCCCCOc1ccc(Nc2cn(C3C=CC(O)C3)c(=O)[nH]c2=O)cc1` (racemic) [(±)-3i, (±)-1-(4′-Hydroxycyclopent-2′-en-1′-yl)-5-((4″-(heptyloxy)phenyl)amino)uracil]: the EC50 was > 100 µM in series [1], 36.8 µM in series [2] (setting [7]) and > 100 µM in series [3]. In addition, the “biological activity against HCoV OC43 (in words)” value (“biological activity” for short) in series [2] is recorded as “moderate biological activity”. Besides, the CC50 in series [4] was determined as 34 µM.

Regarding `CCCCCCCc1ccc(Nc2cn(C3C=CC(O)C3)c(=O)[nH]c2=O)cc1` (racemic) [(±)-3f, (±)-4′-Hydroxycyclopent-2′-en-1′-yl)-5-((4′′-heptylphenyl)amino)uracil], the CC50 in series [5] was > 100 µM; in series [6] it was > 100 µM; in series [4], 70.4 µM. For the same molecule, the figures for the EC50 in series [1], in series [2] (setting [7]) and in series [3] were > 100 µM, 22.4 µM and > 100 µM, respectively. Also, the “biological activity” value in series [2] was “moderate biological activity”.

Turning to `O=c1c(N2CCN(c3ccccc3)CC2)cn(C2C=CC(O)C2)c(=O)n1C1C=CC(O)C1` (racemic) [(±)-4b, (±)-1-(4′-hydroxycyclopent-2′-en-1′-yl)-3-(4‴-hydroxycyclopent-2‴-en-1‴-yl)-5-(4″-phenylpiperazin-1″-yl)uracil], the CC50 in series [5], in series [6] and in series [4] was > 100 µM in each case. Further, the EC50 in series [1], in series [2] (setting [7]) and in series [3] was > 100 µM throughout.

For `O=c1c(N2CCCCCC2)cn(C2C=CC(O)C2)c(=O)n1C1C=CC(O)C1` (racemic) [(±)-4a, (±)-1-(4′-hydroxycyclopent-2′-en-1′-yl)-3-(4‴-hydroxycyclopent-2‴-en-1‴-yl)-5-(azepan-1″-yl)uracil], the CC50 in series [5], in series [6] and in series [4] was > 100 µM each time. The EC50 in series [1], in series [2] (setting [7]) and in series [3] was > 100 µM throughout.

For the molecule `O=c1[nH]cc(N2CCCCCC2)c(=O)[nH]1` [Compound 2a, 5-(Azepan-1-yl)uracil], the CC50 in series [5], in series [6] and in series [4] was > 100 µM in each case. Moreover, the EC50 is > 100 µM in series [1]; > 100 µM in series [2] (Betacoronavirus 1, OC43, HEL 299 cells, reduction of virus-induced cytopathicity by 50%, read-out: EC50 (μM) HCoV-OC43, HEL 299); > 100 µM in series [3].

Consider `Cc1cc(C)cc(Oc2cn(C3C=CC(O)C3)c(=O)n(C3C=CC(O)C3)c2=O)c1` (racemic) [(±)-11a, (±)-1-(4′-hydroxycyclopent-2′-en-1′-yl)-3-(4‴-hydroxycyclopent-2‴-en-1‴-yl)-5-(3″,5″-dimethylphenoxy)uracil], for which the EC50 in series [1] was > 100 µM; in series [2] (setting [7]), 29.8 µM; in series [3], 28.7 µM. The “biological activity” value in series [2] was “moderate biological activity”. The “inhibition of respiratory syncytial virus RSV (strain A Long) (in words)” value in series [3] was “inhibited”. Further, in series [4], the CC50 was determined as 39.3 µM.

As to `CCC(CC)COC(=O)[C@H](C)N[P@](=O)(OC[C@H]1O[C@@](C#N)(c2ccc3c(N)ncnn23)[C@H](O)[C@@H]1O)Oc1ccccc1` [Remdesivir, reference compound], the CC50 in series [5] and in series [6] was > 10 µM throughout. The EC50 in series [2] (setting [7]) turned out to be 0.03 µM; in series [3], 0.01 µM.

`CC(C)(C)c1ccc(Oc2cn(C3C=CC(O)C3)c(=O)n(C3C=CC(O)C3)c2=O)cc1` (racemic) [(±)-11d, (±)-1-(4′-hydroxycyclopent-2′-en-1′-yl)-3-(4‴-hydroxycyclopent-2‴-en-1‴-yl)-5-(4″-(tert-butyl)phenoxy)uracil]: the “activity against yellow fever virus YFV (strain 17D) (in words)” value in series [1] is recorded as “demonstrated activity”. The EC50 in series [1] is 47.9 µM; in series [2] (setting [7]) it was > 100 µM; in series [3], > 100 µM. In addition, the CC50 in series [4] was found to be 40.3 µM.
